Several values for one entry are separate records, joined by “and”; a condition that tells them apart may be missing. Equal entries are not always repeated.
Experiments:
healthy subjects = test: Phase I clinical safety and tolerability; type: in vivo, human; conditions: all four doses, 9–21.5 mg IV
CYP2D6 = CYP2D6 (Homo sapiens, UniProt P10635); test: CYP phenotyping; conditions: CYP2D6 bactosomes, 1 µM DMT fumarate
CYP2B6 = target: T1, CYP2B6 (Homo sapiens, UniProt P20813); test: CYP phenotyping; conditions: CYP2B6 bactosomes, 1 µM DMT fumarate
T1 sequence (P20813 1-491): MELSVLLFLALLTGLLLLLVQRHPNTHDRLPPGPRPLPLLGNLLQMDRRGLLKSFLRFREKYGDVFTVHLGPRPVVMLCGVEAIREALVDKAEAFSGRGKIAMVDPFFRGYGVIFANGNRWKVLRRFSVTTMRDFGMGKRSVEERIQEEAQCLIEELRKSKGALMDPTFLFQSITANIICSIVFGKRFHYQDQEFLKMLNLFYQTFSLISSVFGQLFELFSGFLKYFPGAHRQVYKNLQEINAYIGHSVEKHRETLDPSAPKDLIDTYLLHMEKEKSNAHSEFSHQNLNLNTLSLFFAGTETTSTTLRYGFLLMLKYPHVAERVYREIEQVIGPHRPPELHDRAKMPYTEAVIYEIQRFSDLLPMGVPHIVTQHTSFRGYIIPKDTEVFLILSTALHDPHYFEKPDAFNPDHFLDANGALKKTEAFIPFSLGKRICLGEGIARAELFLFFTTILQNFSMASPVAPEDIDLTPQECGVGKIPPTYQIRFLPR

CYP3A4 = CYP3A4 (Homo sapiens, UniProt P08684); test: CYP phenotyping; conditions: CYP3A4 bactosomes, 1 µM DMT fumarate
CYP3A4, sequence (P08684 whole entry): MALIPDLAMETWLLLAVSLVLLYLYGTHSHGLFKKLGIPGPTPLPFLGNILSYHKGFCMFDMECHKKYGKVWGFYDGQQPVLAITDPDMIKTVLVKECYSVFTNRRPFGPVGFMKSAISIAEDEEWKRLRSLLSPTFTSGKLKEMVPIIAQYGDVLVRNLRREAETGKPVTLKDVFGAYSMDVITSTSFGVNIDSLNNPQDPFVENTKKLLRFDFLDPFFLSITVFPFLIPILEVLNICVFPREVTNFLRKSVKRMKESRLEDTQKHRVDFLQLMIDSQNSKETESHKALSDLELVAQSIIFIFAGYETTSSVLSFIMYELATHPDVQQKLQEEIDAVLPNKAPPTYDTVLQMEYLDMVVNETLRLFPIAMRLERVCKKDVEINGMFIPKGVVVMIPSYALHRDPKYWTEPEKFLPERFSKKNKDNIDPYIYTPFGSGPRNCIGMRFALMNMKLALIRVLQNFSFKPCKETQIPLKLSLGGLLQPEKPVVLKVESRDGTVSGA

[1] = type: in vivo, human
Blood:plasma ratio = type: in vitro ADME; conditions: human, fresh whole blood and plasma
CYP2C19 = CYP2C19 (Homo sapiens, UniProt P33261); test: CYP phenotyping; conditions: CYP2C19 bactosomes, 1 µM DMT fumarate
CYP2C19, sequence (P33261 whole entry): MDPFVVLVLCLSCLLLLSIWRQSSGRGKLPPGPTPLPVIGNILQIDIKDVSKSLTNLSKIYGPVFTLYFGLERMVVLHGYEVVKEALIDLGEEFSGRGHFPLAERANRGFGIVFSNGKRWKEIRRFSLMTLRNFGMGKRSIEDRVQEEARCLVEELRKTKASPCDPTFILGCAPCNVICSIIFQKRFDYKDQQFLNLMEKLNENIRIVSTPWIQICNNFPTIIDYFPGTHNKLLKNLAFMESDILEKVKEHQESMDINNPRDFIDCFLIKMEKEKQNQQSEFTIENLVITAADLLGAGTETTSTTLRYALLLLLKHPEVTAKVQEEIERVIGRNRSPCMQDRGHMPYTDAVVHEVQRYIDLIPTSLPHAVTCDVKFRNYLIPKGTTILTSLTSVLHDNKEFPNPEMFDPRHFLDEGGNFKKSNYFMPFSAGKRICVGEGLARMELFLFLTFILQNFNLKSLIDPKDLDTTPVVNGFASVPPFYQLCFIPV

[2] = bolus IV administration, healthy volunteers; cited from earlier work
CYP2C8 = target: T2, CYP2C8 (Homo sapiens, UniProt P10632); test: CYP phenotyping; conditions: CYP2C8 bactosomes, 1 µM DMT fumarate
T2 sequence (P10632 1-490): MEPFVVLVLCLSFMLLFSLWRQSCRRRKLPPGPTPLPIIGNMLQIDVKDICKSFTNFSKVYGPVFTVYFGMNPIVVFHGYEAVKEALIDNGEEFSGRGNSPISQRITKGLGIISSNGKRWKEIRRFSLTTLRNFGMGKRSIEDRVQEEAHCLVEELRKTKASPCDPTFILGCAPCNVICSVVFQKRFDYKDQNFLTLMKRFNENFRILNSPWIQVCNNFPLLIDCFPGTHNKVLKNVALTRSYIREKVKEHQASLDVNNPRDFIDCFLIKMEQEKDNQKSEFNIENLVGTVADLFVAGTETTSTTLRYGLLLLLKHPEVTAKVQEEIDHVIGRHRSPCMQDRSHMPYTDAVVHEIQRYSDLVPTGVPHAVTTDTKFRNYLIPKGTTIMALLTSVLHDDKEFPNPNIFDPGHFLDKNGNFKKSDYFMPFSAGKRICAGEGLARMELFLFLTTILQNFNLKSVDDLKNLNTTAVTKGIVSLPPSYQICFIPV

MAO-A = test: Metabolic stability in human liver mitochondrial fraction; type: in vitro ADME; conditions: both, liver mitochondrial fractions, with clorgyline 100 nM
Plasma protein binding = conditions: plasma protein binding result
physchem = type: physicochemical; conditions: pH 7.4
CYP2C9 = CYP2C9 (Homo sapiens, UniProt P11712); test: CYP phenotyping; conditions: CYP2C9 bactosomes, 1 µM DMT fumarate
CYP2C9, sequence (P11712 whole entry): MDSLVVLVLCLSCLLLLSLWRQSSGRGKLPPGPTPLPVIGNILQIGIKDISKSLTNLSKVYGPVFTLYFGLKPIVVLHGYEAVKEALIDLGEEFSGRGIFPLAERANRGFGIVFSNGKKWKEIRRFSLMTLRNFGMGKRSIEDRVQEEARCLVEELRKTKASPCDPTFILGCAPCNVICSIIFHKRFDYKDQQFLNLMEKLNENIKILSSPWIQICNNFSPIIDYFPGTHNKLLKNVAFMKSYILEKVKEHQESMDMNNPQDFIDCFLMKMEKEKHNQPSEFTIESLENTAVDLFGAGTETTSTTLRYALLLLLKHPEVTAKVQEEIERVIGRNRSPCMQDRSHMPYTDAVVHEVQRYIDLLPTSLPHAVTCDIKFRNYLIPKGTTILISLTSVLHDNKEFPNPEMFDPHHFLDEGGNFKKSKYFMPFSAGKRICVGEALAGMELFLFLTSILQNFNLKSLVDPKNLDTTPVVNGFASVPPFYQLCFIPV

CYP3A5 = CYP3A5 (Homo sapiens, UniProt P20815); test: CYP phenotyping; conditions: CYP3A5 bactosomes, 1 µM DMT fumarate
CYP3A5, sequence (P20815 whole entry): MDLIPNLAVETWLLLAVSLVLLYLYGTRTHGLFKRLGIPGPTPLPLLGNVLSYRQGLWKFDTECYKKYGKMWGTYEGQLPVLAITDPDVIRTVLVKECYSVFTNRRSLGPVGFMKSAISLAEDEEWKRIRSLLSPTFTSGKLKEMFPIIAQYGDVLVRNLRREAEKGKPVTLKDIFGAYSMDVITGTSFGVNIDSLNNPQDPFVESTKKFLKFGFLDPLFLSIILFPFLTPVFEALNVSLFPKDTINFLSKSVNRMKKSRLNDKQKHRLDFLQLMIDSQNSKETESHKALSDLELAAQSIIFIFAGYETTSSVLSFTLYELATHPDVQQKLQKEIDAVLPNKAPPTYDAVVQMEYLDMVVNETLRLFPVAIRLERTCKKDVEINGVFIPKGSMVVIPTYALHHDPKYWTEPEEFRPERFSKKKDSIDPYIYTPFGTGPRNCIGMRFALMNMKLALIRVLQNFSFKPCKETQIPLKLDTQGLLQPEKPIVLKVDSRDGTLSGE

CYP1A2 = target: T3, CYP1A2 (Homo sapiens, UniProt P05177); test: CYP phenotyping; conditions: CYP1A2 bactosomes, 1 µM DMT fumarate
T3 sequence (P05177 1-516): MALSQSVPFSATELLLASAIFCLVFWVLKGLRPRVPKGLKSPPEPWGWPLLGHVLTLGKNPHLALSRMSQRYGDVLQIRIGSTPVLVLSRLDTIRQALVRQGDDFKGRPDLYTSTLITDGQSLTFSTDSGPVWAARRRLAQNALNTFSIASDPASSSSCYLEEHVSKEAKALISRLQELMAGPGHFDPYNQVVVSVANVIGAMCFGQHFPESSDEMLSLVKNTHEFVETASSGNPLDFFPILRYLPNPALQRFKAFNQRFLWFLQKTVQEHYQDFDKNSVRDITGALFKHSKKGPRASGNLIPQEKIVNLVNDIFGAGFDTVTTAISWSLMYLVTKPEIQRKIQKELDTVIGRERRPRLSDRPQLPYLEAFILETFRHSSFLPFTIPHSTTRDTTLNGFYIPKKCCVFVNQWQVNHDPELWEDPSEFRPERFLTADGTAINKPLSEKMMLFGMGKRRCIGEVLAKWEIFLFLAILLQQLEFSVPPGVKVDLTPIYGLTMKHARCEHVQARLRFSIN

CYP2D6, sequence (P10635 whole entry): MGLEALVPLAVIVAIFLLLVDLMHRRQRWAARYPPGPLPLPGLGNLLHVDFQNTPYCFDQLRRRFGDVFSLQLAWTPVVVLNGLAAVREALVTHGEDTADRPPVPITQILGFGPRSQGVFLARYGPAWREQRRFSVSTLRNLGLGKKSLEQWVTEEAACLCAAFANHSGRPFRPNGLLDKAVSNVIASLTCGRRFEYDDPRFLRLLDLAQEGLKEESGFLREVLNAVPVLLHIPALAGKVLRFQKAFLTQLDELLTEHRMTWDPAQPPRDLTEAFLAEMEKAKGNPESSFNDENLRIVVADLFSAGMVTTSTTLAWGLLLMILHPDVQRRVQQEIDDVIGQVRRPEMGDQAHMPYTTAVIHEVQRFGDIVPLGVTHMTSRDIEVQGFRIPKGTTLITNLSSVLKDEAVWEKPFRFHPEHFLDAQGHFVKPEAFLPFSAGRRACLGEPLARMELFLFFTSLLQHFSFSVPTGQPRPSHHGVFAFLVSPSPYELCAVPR

With `CN(C)CCc1c[nH]c2ccccc12` [DMT, N,N-dimethyltryptamine] as the compound, how does the Safety and tolerability (healthy subjects) read?
The Safety and tolerability was “safe and well tolerated”.

And the Serious adverse events (healthy subjects)?
Its Serious adverse events is “no serious AEs”.

And the Intrinsic clearance (CYP2D6)?
Its Intrinsic clearance is 801 µl/min/nmol CYP.

What about the “Intrinsic clearance (no turnover detected)” value (CYP2B6) of the same compound?
The value was < 29 µl/min/nmol CYP.

What about the “Intrinsic clearance (no turnover detected)” value (CYP3A4) of the same compound?
Its value is < 29 µl/min/nmol CYP.

What about the “Mean measured concentrations of DMT at the 120 min and 240 min time points” value ([1]; all cohorts) of the same compound?
The value was < 0.1 ng/mL.

What about the concentration at 5 min ([1]; human, plasma, intravenous, 6 mg, Individual C5min, following a 6 mg dose over 5 min, across all dose cohorts) of the same compound?
The concentration at 5 min was 3.32 to 43 ng/mL.

What about the half-life ([1]; human, plasma, iv, Mean elimination half-life (plasma), all doses, 9–21.5 mg IV 10-min infusion) of the same compound?
Its half-life is 10 to 12 min.

And the blood plasma ratio at 30 min, 1 µM (Blood:plasma ratio)?
The blood plasma ratio at 30 min, 1 µM was 1.53.

What about the Intrinsic clearance (CYP2C19) of the same compound?
The Intrinsic clearance was 37 µl/min/nmol CYP.

What about the “Time to peak blood concentrations” value [2] of the same compound?
The value was “approximately 2 min”.

And the “Intrinsic clearance (no turnover detected)” value (CYP2C8)?
The value was < 29 µl/min/nmol CYP.

What about the microsomal CLint at 3.1 µM (MAO-A) of the same compound?
The microsomal CLint at 3.1 µM was < 3.9 µL/min/mg.

What about the “Unbound in human plasma” value (Plasma protein binding) of the same compound?
Its value is > 65% and 67.7%.

What about the logD (physchem) of the same compound?
The logD was 0.15.

And the “Intrinsic clearance (no turnover detected)” value (CYP2C9)?
Its value is < 29 µl/min/nmol CYP.

And the “Intrinsic clearance (no turnover detected)” value (CYP3A5)?
The value was < 29 µl/min/nmol CYP.

What about the “Intrinsic clearance (no turnover detected)” value (CYP1A2) of the same compound?
Its value is < 29 µl/min/nmol CYP.
